# In article PMC9951859, “Investigation of α,ω-Disubstituted Polyamine-Cholic Acid Conjugates Identifies Hyodeoxycholic and Chenodeoxycholic Scaffolds as Non-Toxic, Potent Antimicrobials” (Antibiotics, 2023):
# Where “and” joins values, the source holds several entries; their conditions need not be identical. Equal values may be shown once. Entries after “also recorded” stand apart in the source; their conditions may differ. Read-outs that look alike come from different tables or passages of the source.
# Experiments:
# human red blood cells = experiment: Hemolytic assay; format: cell-based; conditions: concentration at 10% hemolytic activity on human red blood cells, mean (n = 2), top dose tested 32 μg/mL
# Protocol: Hemolytic assays were conducted using the protocols previously reported.
# [1] = test system: Acinetobacter baumannii ATCC 19606; experiment: Antimicrobial MIC assay (CO-ADD) against A. baumannii; format: cell-based
# Description: (§1) Antimicrobial evaluation against S. aureus (MRSA) (ATCC 43300), E. coli (ATCC 25922), K. pneumoniae (ATCC 700603), A. baumannii (ATCC 19606), C. albicans (ATCC 90028), and C. neoformans (ATCC 208821) was undertaken at the Community for Open Antimicrobial Drug Discovery at The University of Queensland (Australia) according to their standard protocols as reported previously.
# [2] = test system: Escherichia coli ATCC 25922; experiment: Antimicrobial MIC assay (CO-ADD) against E. coli; format: cell-based
# Description: as §1
# [3] = Cytotoxicity assay on HEK293; format: cell-based, human; conditions: human, concentration at 50% cytotoxicity on HEK293, mean (n = 2), top dose tested 32 μg/mL
# Protocol: (§2) Cytotoxicity assays were conducted using the protocols previously reported.
# [4] = test system: HEK293 human embryonic kidney cells; experiment: Cytotoxicity assay on HEK293; format: cell-based; conditions: concentration at 50% cytotoxicity on HEK293; mean (n = 2); top dose tested 32 μg/mL
# Protocol: as §2
# erythrocytes = test system: erythrocytes; set-up: method as in PMID 11806717; conditions: hemolytic activity; read-out: EC50 for hemoglobin release from erythrocytes; cited from earlier work
# [5] = test system: Candida albicans ATCC 90028; experiment: Antimicrobial MIC assay (CO-ADD) against C. albicans; format: cell-based; conditions: mean (n = 2)
# Description: as §1
# [6] = test system: Cryptococcus neoformans ATCC 208821; experiment: Antimicrobial MIC assay (CO-ADD) against C. neoformans; format: cell-based
# Description: as §1
# [7] = test system: Klebsiella pneumoniae ATCC 700603; experiment: Antimicrobial MIC assay (CO-ADD) against K. pneumoniae; format: cell-based
# Description: as §1
# [8] = test system: B lymphoma Wehi-231 cells; set-up: method as in PMID 19883637; conditions: read-out: EC50 for propidium iodide entry; cited from earlier work
# [9] = test system: Pseudomonas aeruginosa ATCC 27853; experiment: Antimicrobial MIC assay (CO-ADD) against P. aeruginosa; format: cell-based
# [10] = test system: S. aureus MRSA (CF-Marseille); experiment: Broth microdilution MIC (CA-SFM), S. aureus MRSA (CF-Marseille); format: cell-based; conditions: Staphylococcus aureus, 18 h
# Protocol: (§3) Additional antimicrobial evaluation against S. aureus (ATCC 25923), S. aureus MRSA (CF-Marseille) and Bacillus cereus (ATCC 11778) was determined in microplates using the standard broth dilution method in accordance with the recommendations of the Comité de l’AntibioGramme de la Société Française de Microbiologie (CA-SFM). Briefly, the minimal inhibitory concentrations (MICs) were determined with an inoculum of 10^5 CFU in 200 µL of MHB containing two-fold serial dilutions of each drug. […] To determine all MICs, the measurements were independently repeated in triplicate.
# S. aureus ATCC 25923 [11] = experiment: Real time growth curves, S. aureus ATCC 25923; format: cell-based, Staphylococcus aureus
# Protocol: (§4) Solutions of compound 7e at concentrations of 2, 4 and 16 µg/mL were tested each in triplicate against S. aureus ATCC 25923, S. aureus MRSA (CF-Marseille) and Bacillus cereus ATCC 11778. Typically, in a 96 well plate was placed 10 µL of 40, 80 and 320 µg/mL stock solutions of compound 7e as well as 190 µL of a 5 × 10^5 CFU/mL of the selected bacterial suspension in brain heart infusion (BHI) broth. Positive controls containing only 200 µL of a 5 × 10^5 CFU/mL of bacterial suspension in BHI and negative controls containing only 200 µL of BHI broth were added. The plate was incubated at 37 °C in a TECAN Spark Reader […] and real time bacterial growth was followed with OD590 nm measurements every 10 min during 19 h.
# [12] = test system: Staphylococcus aureus ATCC 43300 (MRSA); experiment: Antimicrobial MIC assay (CO-ADD) against S. aureus MRSA; format: cell-based; conditions: Staphylococcus aureus, read-out: MIC S.a.
# Description: as §1
# [13] = test system: Bacillus cereus ATCC 11778; experiment: Broth microdilution MIC (CA-SFM), Bacillus cereus; format: cell-based; conditions: ATCC11778; classical microdilution, Bacillus cereus ATCC 11778, 18 h at 37 °C
# Protocol: as §3
# P. aeruginosa ATCC 27853 = experiment: Antibiotic enhancement of doxycycline; format: cell-based, Pseudomonas aeruginosa; conditions: doxycycline at 2 μg/mL
# Protocol: (§5) Restoring enhancer concentrations were determined with an inoculum of 5 × 10^5 CFU in […] of MH broth containing two-fold serial dilutions of each derivative in the presence of either doxycycline or erythromycin at 2 μg/mL. […] These measurements were independently repeated in triplicate.
# [14] = test system: S. aureus MRSA (CF-Marseille); experiment: Minimum bactericidal concentration test, S. aureus MRSA (CF-Marseille); format: cell-based, Staphylococcus aureus
# Protocol: (§6) A pure culture of a specified microorganism was grown overnight, then diluted in growth-supporting broth (typically Mueller Hinton II broth) to a concentration between 1 × 10^5 and 1 × 10^6 CFU/mL. A stock dilution of the antimicrobial test compound was made at approximately 100 times the expected, previously determined MIC. Further 1:1 dilution was made in 96 well microtiter plates. All dilutions of the test compound were inoculated with equal volumes of the specified microorganism (typically 100 µL). […] An aliquot of the positive control was plated and used to establish a baseline concentration of the microorganism used. The microtiter plates were then incubated at 37 °C for 24 h. Turbidity indicates growth of the microorganism, and the MIC is the lowest concentration where no growth was visually observed. To determine the minimum bactericidal concentration (MBC), the dilution representing the MIC and at least two of the more concentrated test product dilutions was plated on a solidified agar plate to determine the bacterial viability. The MBC is the lowest concentration where no growth is encountered when compared to the MIC dilution.
# [15] = test system: Bacillus cereus ATCC 11778; experiment: Minimum bactericidal concentration test, Bacillus cereus; format: cell-based
# Protocol: as §6
# [16] = test system: Bacillus cereus ATCC 11778; experiment: Real time growth curves, Bacillus cereus; format: cell-based
# Protocol: as §4
# E. coli ATCC 25922 = experiment: Antibiotic enhancement of erythromycin; format: cell-based, Escherichia coli; conditions: erythromycin at 2 μg/mL
# Protocol: as §5
# S. aureus = experiment: ATP release bioluminescence assay; format: cell-based, Staphylococcus aureus; conditions: followed over 30 min after exposure, CTAB (1%) positive control
# Protocol: Solutions of the test compound 7e were prepared in DMSO at various concentrations. A suspension of growing S. aureus to be studied in Muller-Hinton II broth was prepared and incubated at 37 °C. An aliquot (90 µL) of this suspension was added to 10 µL of test compound solution and vortexed for 10 s. Luciferin–luciferase reagent (Yelen, France; 50 µL) was immediately added to this mixture, and luminescent signal quantified with an Infinite M200 microplate reader (Tecan) over a 30 min period; ATP concentration was quantified using internal sample addition. A similar procedure was used for the CTAB positive control.
# [17] = test system: S. aureus MRSA (CF-Marseille); experiment: Real time growth curves, S. aureus MRSA (CF-Marseille); format: cell-based, Staphylococcus aureus; conditions: BHI, 1 to 19 h, at 3.2 μM (4 µg/mL) and 12.7 μM (16 µg/mL)
# Protocol: as §4
# S. aureus ATCC 25923 [18] = experiment: Minimum bactericidal concentration test, S. aureus ATCC 25923; format: cell-based, Staphylococcus aureus
# Protocol: as §6
# S. aureus ATCC 25923 [19] = experiment: Broth microdilution MIC (CA-SFM), S. aureus ATCC 25923; format: cell-based; conditions: Staphylococcus aureus, ATCC25923; classical microdilution, S. aureus ATCC 25923, 18 h at 37 °C
# Protocol: as §3
smiles,measurement,setting,value
"CC(C)[C@@H](CC[C@@H](C)[C@H]1CC[C@H]2[C@@H]3[C@H](O)C[C@H]4C[C@@H](NCCCNCCCCN)CC[C@]4(C)[C@H]3CC[C@]12C)OS(=O)(=O)O [Compound 1, Squalamine, reference compound]",Hemolysis (HC10),human red blood cells,>36 µM
same,Hemolysis (HC10),human red blood cells; listed as squalamine,lack of toxicity indicators
same,MIC,"[1]; ATCC19606, Acinetobacter baumannii ATCC 19606, mean (n = 2), read-out: MIC A.b.",≤ 0.28 µM
same,MIC,"[1]; Acinetobacter baumannii ATCC 19606, mean (n = 2), read-out: MIC A.b.",≤0.28 µM
same,MIC,"[2]; ATCC25922, Escherichia coli ATCC 25922, mean (n = 2), read-out: MIC E.c.",≤ 0.28 µM
same,MIC,"[2]; Escherichia coli ATCC 25922, mean (n = 2), read-out: MIC E.c.",≤0.28 µM
same,IC50,[3],> 36 µM
same,Cytotoxicity (IC50),[4],lack of toxicity indicators
same,EC50,erythrocytes,80 µM
same,MIC,"[5]; ATCC90028, Candida albicans ATCC 90028, read-out: MIC C.a.",4.5 µM
same,MIC,"[6]; ATCC208821, Cryptococcus neoformans ATCC 208821, mean (n = 2), read-out: MIC C.n.",0.56 µM
same,MIC,"[7]; ATCC700603, Klebsiella pneumoniae ATCC 700603, mean (n = 2), read-out: MIC K.p.",≤ 0.28 µM
same,MIC,"[7]; Klebsiella pneumoniae ATCC 700603, mean (n = 2), read-out: MIC K.p.",≤0.28 µM
same,EC50,[8],51 µM
same,MIC,"[9]; ATCC27853, Pseudomonas aeruginosa ATCC 27853, mean (n = 2), read-out: MIC P.a.",18 µM
"C[C@H](CCC(=O)NCCCNCCCCCCCCCCNCCCNC(=O)CC[C@@H](C)[C@H]1CC[C@H]2[C@@H]3C[C@H](O)[C@@H]4C[C@H](O)CC[C@]4(C)[C@H]3CC[C@]12C)[C@H]1CC[C@H]2[C@@H]3C[C@H](O)[C@@H]4C[C@H](O)CC[C@]4(C)[C@H]3CC[C@]12C.O=C(O)C(F)(F)F.O=C(O)C(F)(F)F [Compound 7e, N^1,N^10-Bis(3-((R)-4-((3R,5R,6S,8S,9S,10R,13R,14S,17R)-3,6-dihydroxy-10,13-dimethylhexadecahydro-1H-cyclopenta[a]phenanthren-17-yl)pentanamido)propyl)decane-1,10-diaminium 2,2,2-trifluoroacetate]",Hemolysis (HC10),human red blood cells,>25 µM
same,MIC,[10],3.2 µM and 4 µg/mL
same,time after which growth was exhibited,"S. aureus ATCC 25923 [11]; S. aureus (strain not stated), BHI, lowest tested concentration 1.6 μM (2 µg/mL)",13 h
same,real time growth inhibition (OD 590 nm),"S. aureus ATCC 25923 [11]; S. aureus ATCC 25923, BHI, 1 to 19 h, at 3.2 μM (4 µg/mL) and 12.7 μM (16 µg/mL)",inhibited all three strains
same,MIC,[12],≤ 0.2 µM
same,MIC,"[1]; Acinetobacter baumannii, ATCC19606, read-out: MIC A.b.",> 25 µM
same,MIC,[13],3.2 µM and 4 µg/mL
same,MIC,"[2]; Escherichia coli, ATCC25922, read-out: MIC E.c.",> 25 µM
same,enhancement of antibiotic activity of doxycycline,P. aeruginosa ATCC 27853,No enhancement was observed
same,IC50,[3]; HEK293 human embryonic kidney cells,> 25 µM
same,MBC/MIC ratio,[14]; S. aureus MRSA (CF-Marseille) (one of three Gram-positive strains),approximately one
same,minimum bactericidal concentration (MBC),"[14]; S. aureus MRSA (CF-Marseille), stated relative to MIC (3.2 μM, 4 μg/mL)",The same values were observed
same,MIC,"[5]; Candida albicans, ATCC90028, read-out: MIC C.a., Candida albicans ATCC 90028",≤ 0.2 µM
same,MBC/MIC ratio,[15]; Bacillus cereus ATCC 11778 (one of three Gram-positive strains),approximately one
same,minimum bactericidal concentration (MBC),"[15]; Bacillus cereus ATCC 11778, stated relative to MIC (3.2 μM, 4 μg/mL)",The same values were observed
same,time after which growth was exhibited,"[16]; B. cereus, BHI, lowest tested concentration 1.6 μM (2 µg/mL)",10 h
same,real time growth inhibition (OD 590 nm),"[16]; Bacillus cereus ATCC 11778, BHI, 1 to 19 h, at 3.2 μM (4 µg/mL) and 12.7 μM (16 µg/mL)",inhibited all three strains
same,enhancement of antibiotic activity of erythromycin,E. coli ATCC 25922,No enhancement was observed
same,MIC,"[6]; Cryptococcus neoformans, ATCC208821, read-out: MIC C.n.",0.8 µM
same,MIC,"[7]; Klebsiella pneumoniae, ATCC700603, read-out: MIC K.p.",> 25 µM
same,"ATP release (extracellular ATP, bioluminescence)",S. aureus,inability of 7e to induce ATP release; also recorded: failed to cause ATP release
same,MIC,"[9]; Pseudomonas aeruginosa, ATCC27853, read-out: MIC P.a.",> 25 µM
same,real time growth inhibition (OD 590 nm),[17],inhibited all three strains
same,MBC/MIC ratio,S. aureus ATCC 25923 [18]; S. aureus ATCC 25923 (one of three Gram-positive strains),approximately one
same,minimum bactericidal concentration (MBC),"S. aureus ATCC 25923 [18]; S. aureus ATCC 25923, stated relative to MIC (1.6 μM, 2 μg/mL)",The same values were observed
same,MIC,S. aureus ATCC 25923 [19],1.6 µM and 2 µg/mL
